Test results reported in ChEMBL document CHEMBL5154672, “Design and synthesis of HDAC inhibitors to enhance the therapeutic effect of diffuse large B-cell lymphoma by improving metabolic stability and pharmacokinetic characteristics” (Eur J Med Chem, 2022).
Converted amounts (≈) assume the structure as drawn.

Assays:
[1] = Cmax in ICR mouse at 25 mg/kg, po measured upto 24 hrs by LC-MS/MS analysis; assay type: ADME, organism-based; parameters: time < 24 hrs, dose 25 mg/kg, route po; details: in vivo
[2] = system: TMD8; assay: Induction of apoptosis in human TMD8 cells assessed as necrotic cells at 4 uM incubated for 24 hrs by Annexin V-FITC/PI staining based flow cytometric analysis (reference value: 1.85%); assay type: functional
[3] = AUC (0 to infinity) in CB.17 SCID mouse xenografted with human TMD8 cells at 25 mg/kg, po measured upto 24 hrs by LC-MS/MS analysis; assay type: ADME, organism-based; parameters: time < 24 hrs, dose 25 mg/kg, route po; details: in vivo
[4] = Aqueous solubility of the compound; assay type: physicochemical; details: aqueous medium
[5] = Metabolic stability in dog liver microsomes assessed as intrinsic clearance measured for 75 to 130 mins by LC-MS/MS analysis; assay type: ADME, Canis lupus familiaris, Microsome; details: time 75-130 min, read-out: CLH
[6] = Metabolic stability in dog liver microsomes assessed as half life measured for 75 to 130 mins by LC-MS/MS analysis; assay type: ADME, Canis lupus familiaris, Microsome; details: time 75-130 min
[7] = AUC (0 to infinity) in CB.17 SCID mouse xenografted with human TMD8 cells at 100 mg/kg, po measured upto 24 hrs by LC-MS/MS analysis; assay type: ADME, organism-based; parameters: time < 24 hrs, dose 100 mg/kg, route po; details: in vivo
[8] = system: CCRF-CEM; assay: Antiproliferative activity against human CCRF-CEM cells incubated for 72 hrs by luminescence assay; assay type: functional, cell-based
[9] = AUC (0 to infinity) in ICR mouse at 2 mg/kg, iv measured upto 24 hrs by LC-MS/MS analysis; assay type: ADME, organism-based; parameters: time < 24 hrs, dose 2 mg/kg, route iv; details: in vivo
[10] = system: TMD8; assay: Antiproliferative activity against human TMD8 cells assessed as remaining cell activity at 2 uM incubated for 72 hrs by luminescence assay relative to control; assay type: functional
[11] = AUC (0 to t) in CB.17 SCID mouse xenografted with human TMD8 cells at 50 mg/kg, po measured upto 24 hrs by LC-MS/MS analysis; assay type: ADME, organism-based; parameters: time < 24 hrs, dose 50 mg/kg, route po; details: in vivo
[12] = AUC (0 to t) in CB.17 SCID mouse xenografted with human TMD8 cells at 100 mg/kg, po measured upto 24 hrs by LC-MS/MS analysis; assay type: ADME, organism-based; parameters: dose 100 mg/kg, time < 24 hrs, route po; details: in vivo
[13] = system: SU-DHL-2; assay: Antiproliferative activity against human SUDHL2 cells incubated for 72 hrs by luminescence assay; assay type: functional, cell-based; details: SU-DHL-2, 72 h
[14] = system: DOHH-2; assay: Antiproliferative activity against human DOHH-2 cells incubated for 72 hrs by luminescence assay; assay type: functional, cell-based; details: DOHH-2, 72 h
[15] = system: RS4-11; assay: Antiproliferative activity against human RS4-11 cells incubated for 72 hrs by luminescence assay; assay type: functional, cell-based; details: RS4-11, 72 h
[16] = system: MDA-MB-231; assay: Antiproliferative activity against human MDA-MB-231 cells assessed as remaining cell activity at 2 uM incubated for 72 hrs by luminescence assay relative to control; assay type: functional
[17] = system: Rec1; assay: Antiproliferative activity against human REC1 cells incubated for 72 hrs by luminescence assay; assay type: functional, cell-based; details: Rec1, 72 h
[18] = system: MDA-MB-231; assay: Antiproliferative activity against human MDA-MB-231 cells incubated for 72 hrs by luminescence assay; assay type: functional, cell-based; details: MDA-MB-231, 72 h
[19] = system: SK-OV-3; assay: Antiproliferative activity against human SK-OV-3 cells incubated for 72 hrs by luminescence assay; assay type: functional, cell-based; details: SK-OV-3, 72 h
[20] = system: TMD8; assay: Induction of apoptosis in human TMD8 cells assessed as viable cells at 4 uM incubated for 24 hrs by Annexin V-FITC/PI staining based flow cytometric analysis (reference value: 96.4%); assay type: functional; details: read-out: Activity
[21] = Cmax in CB.17 SCID mouse xenografted with human TMD8 cells at 100 mg/kg, po measured upto 24 hrs by LC-MS/MS analysis; assay type: ADME, organism-based; parameters: time < 24 hrs, dose 100 mg/kg, route po; details: in vivo
[22] = system: A549; assay: Antiproliferative activity against human A549 cells assessed as remaining cell activity at 2 uM incubated for 72 hrs by luminescence assay relative to control; assay type: functional
[23] = system: HCT-116; assay: Antiproliferative activity against human HCT-116 cells assessed as remaining cell activity at 2 uM incubated for 72 hrs by luminescence assay relative to control; assay type: functional
[24] = target: Histone deacetylase 1 (Homo sapiens, UniProt Q13547); assay: Inhibition of HDAC1 (unknown origin) using RHKK(Ac)AMC fluorogenic peptide as substrate preincubated for 10 mins followed by substrate addition for 1 hr in presence of ATP by fluoroscence based assay
Chain of Histone deacetylase 1 (Q13547 whole entry): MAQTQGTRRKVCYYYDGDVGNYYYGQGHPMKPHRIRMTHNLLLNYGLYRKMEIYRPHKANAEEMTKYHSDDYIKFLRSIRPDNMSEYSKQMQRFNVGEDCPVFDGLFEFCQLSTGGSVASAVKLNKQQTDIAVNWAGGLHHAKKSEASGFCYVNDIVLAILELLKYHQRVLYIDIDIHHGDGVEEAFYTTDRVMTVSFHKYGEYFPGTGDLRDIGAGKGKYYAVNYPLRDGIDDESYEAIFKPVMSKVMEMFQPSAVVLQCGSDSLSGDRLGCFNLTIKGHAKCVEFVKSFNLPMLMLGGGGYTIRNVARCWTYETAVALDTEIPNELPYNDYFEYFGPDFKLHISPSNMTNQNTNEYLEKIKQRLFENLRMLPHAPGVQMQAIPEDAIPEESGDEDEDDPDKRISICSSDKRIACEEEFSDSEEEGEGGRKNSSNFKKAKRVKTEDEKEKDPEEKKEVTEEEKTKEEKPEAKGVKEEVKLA

[25] = system: NCI-H460; assay: Antiproliferative activity against human NCI-H460 cells incubated for 72 hrs by luminescence assay; assay type: functional, cell-based; details: NCI-H460, 72 h
[26] = system: A549; assay: Antiproliferative activity against human A549 cells incubated for 72 hrs by luminescence assay; assay type: functional, cell-based; details: A549, 72 h
[27] = target: Histone deacetylase 2 (Homo sapiens, UniProt Q92769); assay: Inhibition of HDAC2 (unknown origin) using RHKK(Ac)AMC fluorogenic peptide as substrate preincubated for 10 mins followed by substrate addition for 1 hr in presence of ATP by fluoroscence based assay
Chain of Histone deacetylase 2 (Q92769 whole entry): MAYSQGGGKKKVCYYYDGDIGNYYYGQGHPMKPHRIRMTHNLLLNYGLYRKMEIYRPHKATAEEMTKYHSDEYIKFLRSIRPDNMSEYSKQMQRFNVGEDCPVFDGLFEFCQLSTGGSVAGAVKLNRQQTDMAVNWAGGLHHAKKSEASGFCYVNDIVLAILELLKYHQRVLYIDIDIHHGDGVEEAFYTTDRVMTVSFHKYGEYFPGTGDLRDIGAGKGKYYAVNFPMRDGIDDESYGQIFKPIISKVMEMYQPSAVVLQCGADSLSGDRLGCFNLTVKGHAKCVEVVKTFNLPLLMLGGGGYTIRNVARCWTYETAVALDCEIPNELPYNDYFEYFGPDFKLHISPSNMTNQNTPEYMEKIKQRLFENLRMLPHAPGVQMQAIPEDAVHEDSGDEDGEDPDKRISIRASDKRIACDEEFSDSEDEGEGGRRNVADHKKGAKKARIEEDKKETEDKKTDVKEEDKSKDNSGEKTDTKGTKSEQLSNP

[28] = system: HCT-116; assay: Antiproliferative activity against human HCT-116 cells incubated for 72 hrs by luminescence assay; assay type: functional, cell-based; details: HCT-116, 72 h
[29] = target: Histone deacetylase 3 (Homo sapiens, UniProt O15379); assay: Inhibition of HDAC3 (unknown origin) using RHKK(Ac)AMC fluorogenic peptide as substrate preincubated for 10 mins followed by substrate addition for 1 hr in presence of ATP by fluoroscence based assay
Chain of Histone deacetylase 3 (O15379 whole entry): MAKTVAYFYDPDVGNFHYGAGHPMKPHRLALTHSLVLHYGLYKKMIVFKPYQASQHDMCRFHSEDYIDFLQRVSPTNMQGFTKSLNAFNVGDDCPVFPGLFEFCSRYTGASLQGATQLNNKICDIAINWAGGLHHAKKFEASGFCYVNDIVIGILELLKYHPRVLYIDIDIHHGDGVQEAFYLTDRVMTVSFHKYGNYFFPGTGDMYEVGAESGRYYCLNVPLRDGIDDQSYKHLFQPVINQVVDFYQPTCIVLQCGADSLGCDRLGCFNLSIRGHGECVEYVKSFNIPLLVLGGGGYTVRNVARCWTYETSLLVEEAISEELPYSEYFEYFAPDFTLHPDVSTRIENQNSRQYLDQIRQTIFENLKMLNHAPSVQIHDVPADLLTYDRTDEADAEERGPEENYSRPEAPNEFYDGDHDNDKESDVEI

[30] = MRT (0 to t) in CB.17 SCID mouse xenografted with human TMD8 cells at 100 mg/kg, po measured upto 24 hrs by LC-MS/MS analysis; assay type: ADME, organism-based; details: in vivo
[31] = system: TMD8; assay: Induction of apoptosis in human TMD8 cells assessed as viable cells at 2 uM incubated for 24 hrs by Annexin V-FITC/PI staining based flow cytometric analysis (reference value: 96.4%); assay type: functional; details: read-out: Activity
[32] = system: NCI-H441; assay: Antiproliferative activity against human NCI-H441 cells incubated for 72 hrs by luminescence assay; assay type: functional, cell-based; details: NCI-H441, 72 h
[33] = system: TMD8; assay: Induction of apoptosis in human TMD8 cells assessed as early apoptotic cells at 4 uM incubated for 24 hrs by Annexin V-FITC/PI staining based flow cytometric analysis (reference value: 0.24%); assay type: functional
[34] = MRT (0 to t) in CB.17 SCID mouse xenografted with human TMD8 cells at 50 mg/kg, po measured upto 24 hrs by LC-MS/MS analysis; assay type: ADME, organism-based; details: in vivo
[35] = Metabolic stability in rat liver microsomes assessed as half life measured for 75 to 130 mins by LC-MS/MS analysis; assay type: ADME, Microsome; details: time 75-130 min

Nc1ccccc1NC(=O)c1ccc(CN2CCC/C(=C\c3ccccn3)C2=O)cc1
Cmax [1]: 3100 ng/mL
Activity [2]: 8.19%
AUC(0-inf) [3]: 1230 ng·h/mL
solubility [4]: 5 ng/mL (≈ 0.0121 µM)
microsomal CLint [5]: 1.32 µL/min/mg
half-life [6]: 17.9 h
AUC(0-inf) [7]: 9770 ng·h/mL
IC50 [8]: 480 nM
AUC(0-inf) [9]: 1040 ng·h/mL
Activity [10]: 2.32%
AUC(0-t) at 24 h [11]: 9710 ng·h/mL
AUC(0-t) at 24 h [12]: 9740 ng·h/mL
IC50 [13]: 510 nM
IC50 [14]: 390 nM
IC50 [15]: 470 nM
Activity [16]: 64.94%
IC50 [17]: 330 nM
IC50 [18]: 2290 nM
IC50 [19]: 3170 nM
viability at 4 µM [20]: 57.4%
Cmax [21]: 10700 ng/mL
Activity [22]: 48.53%
Activity [23]: 44.01%
IC50 [24]: 84.9 nM
IC50 [25]: 1580 nM
IC50 [26]: 2850 nM
IC50 [27]: 168 nM
IC50 [28]: 1160 nM
IC50 [29]: 443 nM
MRT last at 24 h [30]: 1.43 h
viability at 2 µM [31]: 75.3%
IC50 [32]: 2620 nM
Activity [33]: 24.8%
MRT last at 24 h [34]: 0.812 h
half-life [35]: 1.75 h
